Converted amounts (≈) assume the structure as drawn. Read-outs that look alike come from different tables or passages of the source.
Tests used:
Vero E6 cells = assay: cells; assay type: cell-based; details: Chlorocebus sabaeus, Vero C1008, upper limit of concentrations tested 200 µg/mL, read-out: IC50 (the source's name)
SARS-CoV-2 virus = assay: microbe, parasite or virus in culture; assay type: cell-based; details: for inhibition of virus-induced CPE development / virus replication (in words): any concentration up to the tested limit of 200 µg/mL; for selectivity index (SI): IC50/EC50 in Vero E6 cells
[1] = cytotoxicity, uninfected Vero E6 cells, MTT
[2] = Severe acute respiratory syndrome coronavirus 2, Vero C1008, SARS-CoV-2 in Vero E6 cells, CPE-positive wells reduced by half, upper limit tested 200 µg/mL, read-out: EC50
[3] = SARS-CoV-2 in Vero E6 cells, CPE-positive wells reduced by half, upper limit tested 200 µg/mL

SMILES | CC50 (Vero E6 cells; [1]) | EC50 (SARS-CoV-2 virus; [2]) | inhibition of virus-induced CPE development / virus replication (in words) (SARS-CoV-2 virus) | CC50 (Vero E6 cells; […]) | EC50 (SARS-CoV-2 virus; Severe acute respiratory syndrome coronavirus 2, Vero C1008) | wells presenting the CPE (SARS-CoV-2 virus; 6a at 0.82 μg/mL, ten wells per concentration) | wells showing the CPE (SARS-CoV-2 virus; 6a at 2.47 μg/mL, ten wells per concentration) | selectivity index (SI) (SARS-CoV-2 virus) | EC50 (SARS-CoV-2 virus; [3])
CC(=O)c1cc2c(nc1C)CC1OC2(C)Oc2ccccc21 (stereo not shown) [Compound 3, 1-(2,5-dimethyl-11,12-dihydro-5H-5,11-epoxybenzo[7,8]oxocino[4,3-b]pyridin-3-yl)ethan-1-one] | 131 µg/mL (≈ 444 µM) | > 200 µg/mL | did not affect the development of CPE |  |  |  |  |  | 
CC(=NNC(=O)c1ccncc1)c1cc2c(nc1C)CC1OC2(C)Oc2ccccc21 (stereo not shown) [Compound 4a, (E,Z)-N′-(1-(2,5-dimethyl-11,12-dihydro-5H-5,11-epoxybenzo[7,8]oxocino[4,3-b]pyridin-3-yl)ethylidene)isonicotinohydrazide] | > 200 µg/mL | > 200 µg/mL | did not affect the development of CPE |  |  |  |  |  | 
C/C(=N\NC(=O)c1ccccc1O)c1cc2c(nc1C)CC1OC2(C)Oc2ccccc21 (stereo not shown) [Compound 4b, (E)-N′-(1-(2,5-dimethyl-11,12-dihydro-5H-5,11-epoxybenzo[7,8]oxocino[4,3-b]pyridin-3-yl)ethylidene)-2-hydroxybenzohydrazide] | > 200 µg/mL | > 200 µg/mL | did not affect the development of CPE |  |  |  |  |  | 
Cc1nc2c(cc1C(=O)/C=C(\O)C(=O)O)C1(C)Oc3ccccc3C(C2)O1 (stereo not shown) [Compound 5, (Z)-4-(2,5-dimethyl-11,12-dihydro-5H-5,11-epoxybenzo[7,8]oxocino[4,3-b]pyridin-3-yl)-2-hydroxy-4-oxobut-2-enoic acid] |  |  | did not affect the development of CPE | > 200 µg/mL | > 200 µg/mL |  |  |  | 
Cc1nc2c(cc1C(=O)/C=C1\Nc3ccccc3NC1=O)C1(C)Oc3ccccc3C(C2)O1 (stereo not shown) [Compound 6a, (Z)-3-(2-(2,5-dimethyl-11,12-dihydro-5H-5,11-epoxybenzo[7,8]oxocino[4,3-b]pyridin-3-yl)-2-oxoethylidene)-3,4-dihydroquinoxalin-2(1H)-one] | 6 µg/mL (≈ 13.7 µM) | 2.23 µg/mL (≈ 5.07 µM) | inhibition of CPE development was found |  |  | Eight of ten | one in ten | 2.7 | 2.2 µg/mL (≈ 5.01 µM)
Cc1nc2c(cc1C(=O)/C=C1\Nc3ccccc3OC1=O)C1(C)Oc3ccccc3C(C2)O1 (stereo not shown) [Compound 6b, (Z)-3-(2-(2,5-dimethyl-11,12-dihydro-5H-5,11-epoxybenzo[7,8]oxocino[4,3-b]pyridin-3-yl)-2-oxoethylidene)-3,4-dihydro-2H-benzo[b][1,4]oxazin-2-one] | > 200 µg/mL | > 200 µg/mL | did not affect the development of CPE |  |  |  |  |  | 
Cc1nc2c(cc1C(=O)/C=C1\Nc3ccc([N+](=O)[O-])cc3OC1=O)C1(C)Oc3ccccc3C(C2)O1 (stereo not shown) [Compound 6c, (Z)-3-(2-(2,5-dimethyl-11,12-dihydro-5H-5,11-epoxybenzo[7,8]oxocino[4,3-b]pyridin-3-yl)-2-oxoethylidene)-7-nitro-3,4-dihydro-2H-benzo[b][1,4]oxazin-2-one] | > 200 µg/mL | > 200 µg/mL | did not affect the development of CPE |  |  |  |  |  | 
CCN(CC)CCOc1ccc2c(c1)C(=O)c1cc(OCCN(CC)CC)ccc1-2.Cl [Tilorone, 2,7-bis[2-(diethylamino)ethoxy]fluoren-9-one hydrochloride, reference compound] |  | 4.29 µg/mL |  |  |  |  |  | 1.8 | 4.3 µg/mL

— publication PMC9230803, “Synthesis and Antiviral Properties against SARS-CoV-2 of Epoxybenzooxocino[4,3-b]Pyridine Derivatives” (Molecules, 2022)
